Source: patent US12559455B2, “Compound as a UBR box domain ligand” (AUTOTAC INC., priority 2020, dated 2026)

target: T1, UBR1 (Rattus norvegicus, UniProt A0A8I5ZK69); assay: Inhibition of muscle cell actin degradation by immunoblotting; type: cell-based; details: L6 cell line, compound 5 uM, 24 hours
T1 construct: endogenous in cells; host or cells: L6 rat muscle-derived cells
Experimental: To evaluate the actin degradation of compounds in muscle cells, a L6 cell line, which is a rat muscle-derived cell, was cultured using a DMEM medium containing 10% FBS and 1% streptomycin/penicillin in an incubator in which 5% carbon dioxide was maintained. In order to measure the UBR1 binding strength according to the treatment with a representative compound selected from the present compounds, cells were aliquoted into a 12-well plate. The cells were additionally cultured for 24 hours so as to be completely attached to the surface of the plate. […] To extract proteins from the collected cells, 50 uL of a lysis buffer (20 mM Tris, pH 7.4, 150 mM NaCl, 1% Triton-X-100, 2 mM NaF, 2 mM EDTA, 2 mM b-glycerophosphate, 5 mM sodium orthovanadate, 1 mM PMSF, leupeptin, aprotenin) was injected into each sample, and the cells were lysed. A sample buffer was added to each sample based on the measured total protein concentration, and the mixture was reacted at 100° C. for 5 minutes. After 5 uL was taken from the completely reacted sample and aliquoted into each well of an acrylamide gel, an immunoblotting method was performed, and the experimental results were illustrated in [FIG. 4], [FIG. 5], [FIG. 6], [FIG. 7], [FIG. 8], and [FIG. 9]. For the immunoblotting method, a representative experiment was schematized from three or more independent experiments.

T1 sequence (A0A8I5ZK69 1-1749): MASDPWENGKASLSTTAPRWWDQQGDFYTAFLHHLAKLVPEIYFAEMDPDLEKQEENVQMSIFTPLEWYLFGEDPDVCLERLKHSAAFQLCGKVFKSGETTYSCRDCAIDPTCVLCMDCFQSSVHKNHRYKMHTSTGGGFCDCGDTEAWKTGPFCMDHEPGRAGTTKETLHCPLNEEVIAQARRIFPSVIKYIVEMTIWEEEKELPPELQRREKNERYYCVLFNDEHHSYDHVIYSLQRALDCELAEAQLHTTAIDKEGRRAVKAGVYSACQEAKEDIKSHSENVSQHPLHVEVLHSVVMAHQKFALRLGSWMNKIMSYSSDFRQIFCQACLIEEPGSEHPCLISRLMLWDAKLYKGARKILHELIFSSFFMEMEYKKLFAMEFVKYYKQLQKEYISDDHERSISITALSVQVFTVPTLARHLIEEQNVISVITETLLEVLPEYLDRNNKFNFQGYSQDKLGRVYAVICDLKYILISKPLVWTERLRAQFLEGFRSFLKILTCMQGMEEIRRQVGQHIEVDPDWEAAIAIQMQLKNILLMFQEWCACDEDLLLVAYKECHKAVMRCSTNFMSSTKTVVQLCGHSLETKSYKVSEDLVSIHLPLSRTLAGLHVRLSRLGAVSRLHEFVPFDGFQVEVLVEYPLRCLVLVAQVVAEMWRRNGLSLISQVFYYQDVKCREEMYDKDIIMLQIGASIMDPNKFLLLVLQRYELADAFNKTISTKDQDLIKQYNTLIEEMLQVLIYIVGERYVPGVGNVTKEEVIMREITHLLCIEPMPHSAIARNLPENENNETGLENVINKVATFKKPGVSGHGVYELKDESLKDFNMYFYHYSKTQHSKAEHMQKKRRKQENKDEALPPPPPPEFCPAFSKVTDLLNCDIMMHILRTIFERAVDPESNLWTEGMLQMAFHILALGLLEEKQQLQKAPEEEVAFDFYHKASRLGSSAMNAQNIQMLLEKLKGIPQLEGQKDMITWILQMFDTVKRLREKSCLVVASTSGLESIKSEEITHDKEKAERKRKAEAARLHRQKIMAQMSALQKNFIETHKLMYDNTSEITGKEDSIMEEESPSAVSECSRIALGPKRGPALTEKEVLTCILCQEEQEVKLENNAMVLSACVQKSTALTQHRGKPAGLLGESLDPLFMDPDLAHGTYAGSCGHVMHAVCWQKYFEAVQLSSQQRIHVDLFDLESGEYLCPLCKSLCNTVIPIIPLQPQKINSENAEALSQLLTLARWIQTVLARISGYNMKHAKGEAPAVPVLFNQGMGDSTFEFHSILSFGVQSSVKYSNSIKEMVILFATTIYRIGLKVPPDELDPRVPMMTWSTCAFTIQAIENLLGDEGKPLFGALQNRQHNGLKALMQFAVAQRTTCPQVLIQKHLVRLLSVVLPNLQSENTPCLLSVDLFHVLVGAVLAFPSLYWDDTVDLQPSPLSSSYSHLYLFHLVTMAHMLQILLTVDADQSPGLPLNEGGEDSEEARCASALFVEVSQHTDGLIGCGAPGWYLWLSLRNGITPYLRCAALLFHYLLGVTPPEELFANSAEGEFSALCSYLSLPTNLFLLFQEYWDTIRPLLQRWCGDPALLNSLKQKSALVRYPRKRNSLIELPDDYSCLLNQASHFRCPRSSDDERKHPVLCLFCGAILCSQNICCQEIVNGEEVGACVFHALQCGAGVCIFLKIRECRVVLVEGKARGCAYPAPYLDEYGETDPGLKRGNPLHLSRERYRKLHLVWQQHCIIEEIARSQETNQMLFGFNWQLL

level of ACTG2 compared to the control | level of ACTA2 compared to the control | level of ACTA1 compared to the control | level of ACTC1 compared to the control | SMILES
– | further increased | – | – | Nc1ccc(S(=O)(=O)NNC(=O)c2ccc(O)cc2)cc1N1CCCCC1 [Compound 23, 4-amino-N′-(4-hydroxybenzoyl)-3-(piperidin-1-yl)benzenesulfonohydrazide]
– | – | further increased | – | Nc1ccc(S(=O)(=O)NNC(=O)c2ccc(-c3ccccc3)cc2)cc1 [Compound 6, N′-([1,1′-biphenyl]-4-carbonyl)-4-aminobenzenesulfonohydrazide]
– | – | – | further increased | Cc1nc(S(=O)(=O)NNC(=O)c2ccc(O)cc2)cs1 [Compound 42, N′-(4-hydroxybenzoyl)-2-methylthiazole-4-sulfonohydrazide]
– | further increased | – | – | O=C(NNS(=O)(=O)c1ccc([N+](=O)[O-])c(N2CCCC2)c1)c1ccc(O)cc1 [Compound 22, N′-(4-hydroxybenzoyl)-4-nitro-3-(pyrrolidin-1-yl)benzenesulfonohydrazide]
– | – | further increased | – | Cc1oc(C(=O)O)cc1S(=O)(=O)NNC(=O)c1ccc(O)cc1 [Compound 45, 4-((2-(4-hydroxybenzoyl)hydrazinyl)sulfonyl)-5-methylfuran-2-carboxylic acid]
– | – | – | further increased | Nc1ccc(S(=O)(=O)NNC(=O)N2CCNCC2)cc1N1CCOCC1 [Compound 41, 4-amino-3-morpholino-N′-(piperazine-1-carbonyl)benzenesulfonohydrazide]
– | further increased | – | – | NC(=O)c1ccc(C(=O)NNS(=O)(=O)c2ccc(N)cc2)cc1 [Compound 18, 4-(2-((4-aminophenyl)sulfonyl)hydrazine-1-carbonyl)benzamide]

Second part, the compound before the results:

SMILES | level of ACTG2 compared to the control | level of ACTA2 compared to the control | level of ACTA1 compared to the control | level of ACTC1 compared to the control
Nc1ccc(S(=O)(=O)NNC(=O)c2ccc(O)cc2)cc1-c1ccccc1 [Compound 17, 6-amino-N′-(4-hydroxybenzoyl)-[1,1′-biphenyl]-3-sulfonohydrazide] | further increased | – | – | –
O=C(NNS(=O)(=O)c1cc2cccnc2[nH]1)c1ccc(O)cc1 [Compound 47, N′-(4-hydroxybenzoyl)-1H-pyrrolo[2,3-b]pyridine-2-sulfonohydrazide] | – | – | further increased | –
Nc1ccc(S(=O)(=O)NNC(=O)c2cccc3[nH]ccc23)cc1N1CCOCC1 [Compound 28, 4-amino-N′-(1H-indole-4-carbonyl)-3-morpholinobenzenesulfonohydrazide] | – | further increased | – | –
Nc1ccc(S(=O)(=O)NNC(=O)c2cccc3c2CCN3)cc1 [Compound 29, 4-amino-N′-(indoline-4-carbonyl)benzenesulfonohydrazide] | further increased | – | – | –
Nc1ccc(S(=O)(=O)NNC(=O)C2CNc3ccccc32)cc1 (centres unmarked) [Compound 37, 4-amino-N′-(indoline-3-carbonyl)benzenesulfonohydrazide] | – | – | further increased | –
O=C(NNS(=O)(=O)C1CCNC1)c1ccc(O)cc1 (centres unmarked) [Compound 46, N′-(4-hydroxybenzoyl)pyrrolidine-3-sulfonohydrazide] | – | – | further increased | –
Nc1ccc(S(=O)(=O)NNC(=O)c2ccc3c(c2)NCC3)cc1 [Compound 36, 4-amino-N′-(indoline-6-carbonyl)benzenesulfonohydrazide] | – | – | further increased | –
Nc1ccc(S(=O)(=O)NNC(=O)C2Cc3ccccc3C2)cc1 [Compound 31, 4-amino-N′-(2,3-dihydro-1H-indene-2-carbonyl)benzenesulfonohydrazide] | further increased | – | – | –
O=C(NNS(=O)(=O)c1cccc2[nH]ccc12)c1ccc(O)cc1 [Compound 26, N′-(4-hydroxybenzoyl)-1H-indole-4-sulfonohydrazide] | – | further increased | – | –
O=C(NNS(=O)(=O)c1cn[nH]c1)c1ccc(O)cc1 [Compound 24, N′-(4-hydroxybenzoyl)-1H-pyrazole-4-sulfonohydrazide] | – | further increased | – | –
